In patent US12257367B2, “Biomaterials for biological tissue repair” (KONAN GAKUEN, priority 2019, dated 2025):

Experiments:
[1] = test system: mouse tissues (lung, cardiac muscle, skeletal muscle, kidney); assay: Azide modification of mouse tissues by Ac4ManNAz administration and hydrogel fabrication using biological tissue; assay type: in vivo; conditions: intraperitoneal once a day for seven days
Protocol: 6 mg of Ac4ManNAz was dissolved in a mixed solvent of DMSO and PBS solution (58% DMSO) to prepare a Ac4ManNAz solution. 200 μL of the resulting Ac4ManNAz solution was intraperitoneally administered to a mouse (ICR, 5 weeks old, female) once a day for seven consecutive days for azide-modification of the mouse tissues. A week later, lung, cardiac muscle, skeletal muscle and kidney of the mouse were resected. The resected tissues were allowed to react with 100 μM of carboxyrhodamine 110 DBCO for an hour, then added with a PBS solution, vortexed and left to stand still for 10 minutes. This operation was repeated for 3 times. As control, tissues resected from a mouse that was not administered with the Ac4ManNAz solution were allowed to react with carboxyrhodamine 110 DBCO for an hour. […] In order to carry out gelation reaction using mouse tissues, the Ac4ManNAz solution was administered to a mouse in the same manner as described above and lung, brain, muscle tissue, kidney, heart and liver were resected from the mouse.

[2] = test system: mouse myoblasts (C2C12 cells); assay: Cytotoxicity test of Ac4ManNAz by WST-1 assay; assay type: cell-based
Protocol: In order to examine the cytotoxicity of the synthesized Ac4ManNAz, mouse myoblasts (C2C12 cells) were used to evaluate toxicity to cells by WST-1 assay. The cells were seeded in a 96-well plate at 1×10^4 cells/well, to which a predetermined amount of Ac4ManNAz dissolved in a DMEM medium (final concentrations of 0, 0.0001, 0.001, 0.01, 0.1 and 1 mM) was added to culture the resultant in a CO2 incubator at 37° C. for one day. To each well, 10 μL of a WST-1 solution (WST-1:1-Methoxy PMS=9:1) was added to allow reaction in the CO2 incubator for 2 hours. Thereafter, absorbance was determined with a microplate reader. Cell viability was calculated from the absorbance.

C2C12 cells = assay: Azide modification of cell surface by sugar metabolism of Ac4ManNAz, detected with carboxyrhodamine 110 DBCO; assay type: cell-based, mouse
Protocol: C2C12 cells were cultured in a DMEM medium containing 100 μM of Ac4ManNAz for 3 days to allow biosynthesis of azide-modified sialic acid at the end of the glycan of the cell membrane protein via cell sugar metabolism reaction of Ac4ManNAz. The cultured cells were washed with PBS twice. To confirm whether an azide group was introduced, carboxyrhodamine 110 DBCO (final concentration 5 μM) was added to the medium and allowed to react in the CO2 incubator for an hour. Subsequently, the cells were washed with PBS twice, to which a live cell imaging buffer (composition of the solution: 140 mM NaCl, 2.5 mM KCl, 1.8 mM CaCl2), 1.0 mM MgCl2 and 20 mM HEPES pH 7.4) was added to observe the cells with a confocal microscope.

SMILES: CC(=O)OC[C@H]1OC(OC(C)=O)[C@@H](NC(=O)CN=[N+]=[N-])[C@@H](OC(C)=O)[C@@H]1OC(C)=O (some centres unmarked) [Ac4ManNAz]
- azide modification of tissues in living body (FITC-derived green fluorescence after bAlg-DBCO-FITC) [1]: green fluorescence was observed in all of the tissues
- amount applicable without having toxicity to cells ([2]; WST-1): 5 to 100 µM
- cell viability ([2]; WST-1, all concentrations (0-1 mM), one day): ≥ 90%
- carboxyrhodamine 110-derived green fluorescence of cells (C2C12 cells; C2C12 cells cultured with 100 μM for 3 days, confocal microscope): strong green fluorescence was observed only on the surface of the cell membrane
- concentration that allows a maximum amount of azide groups to be introduced into the cell surface (fluorescence intensity plateau) (C2C12 cells; C2C12 cells, carboxyrhodamine 110 DBCO): 100 µM
